Assay results: article PMC7367925, “The EU-ToxRisk method documentation, data processing and chemical testing pipeline for the regulatory use of new approach methods” (Archives of Toxicology, 2020)

Columns and labels:
[1] = test system: U-2 OS reporter cell lines battery; assay: CALUX reporter gene assay battery as a whole; conditions: all CALUX assays, 13 concentrations, 24 h exposure
[2] = target: T1, PPARα (Homo sapiens, UniProt Q07869); assay: PPARa CALUX; format: cell-based; conditions: 24 h exposure, lowest effect level PC10, means from 3 assay runs
T1 construct: host or cells: U-2 OS
T1 sequence (Q07869 1-468): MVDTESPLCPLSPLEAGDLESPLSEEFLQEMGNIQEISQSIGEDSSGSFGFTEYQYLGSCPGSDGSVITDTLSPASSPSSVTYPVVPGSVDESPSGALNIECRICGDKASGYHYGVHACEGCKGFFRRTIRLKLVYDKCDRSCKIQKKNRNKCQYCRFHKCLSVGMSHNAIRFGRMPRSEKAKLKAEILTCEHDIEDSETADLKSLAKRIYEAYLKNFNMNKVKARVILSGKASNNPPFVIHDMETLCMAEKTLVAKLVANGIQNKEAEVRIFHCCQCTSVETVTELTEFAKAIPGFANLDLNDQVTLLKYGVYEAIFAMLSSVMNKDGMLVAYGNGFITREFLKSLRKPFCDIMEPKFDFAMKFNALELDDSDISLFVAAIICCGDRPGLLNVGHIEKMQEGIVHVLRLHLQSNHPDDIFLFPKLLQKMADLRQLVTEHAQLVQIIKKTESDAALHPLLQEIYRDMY
Description: (§1) After 24 h, exposure medium was prepared. […] All samples were tested in triplicates. […] Fig. SM_4. […] Fig. SM_4.
(§2) Cell line Endpoint effect Reference compound […]
PPARa CALUX Peroxisomeproliferator activated receptor agonists PC10 GW7647 […]
(§3) Supplementary Material SM_4
(§4) Overview of CALUX assays.
(§5) This is defined as the concentration of test compound […]
(§6) for an antagonist assay is a PC20.
(§7) PC = positive control. FI = fold induction. PC10: concentration where test compound causes an activation equal to 10% of the maximum effect (positive control). PC20: concentration where test compound causes […]
(§8) FI=1.5: concentration where test
(§9) (A) exemplary graph of concentration- […]
(§10) receptor antagonism assay with PC20 as lowest-effect-level. (C) exemplary graph for assay with 1.5 fold inductionas lowest effect level. 9

[3] = target: T2, PPARγ (Homo sapiens, UniProt P37231); assay: PPARg2 CALUX; format: cell-based; conditions: 24 h exposure, lowest effect level PC10, means from 3 assay runs
T2 construct: host or cells: U-2 OS
T2 sequence (P37231 1-505): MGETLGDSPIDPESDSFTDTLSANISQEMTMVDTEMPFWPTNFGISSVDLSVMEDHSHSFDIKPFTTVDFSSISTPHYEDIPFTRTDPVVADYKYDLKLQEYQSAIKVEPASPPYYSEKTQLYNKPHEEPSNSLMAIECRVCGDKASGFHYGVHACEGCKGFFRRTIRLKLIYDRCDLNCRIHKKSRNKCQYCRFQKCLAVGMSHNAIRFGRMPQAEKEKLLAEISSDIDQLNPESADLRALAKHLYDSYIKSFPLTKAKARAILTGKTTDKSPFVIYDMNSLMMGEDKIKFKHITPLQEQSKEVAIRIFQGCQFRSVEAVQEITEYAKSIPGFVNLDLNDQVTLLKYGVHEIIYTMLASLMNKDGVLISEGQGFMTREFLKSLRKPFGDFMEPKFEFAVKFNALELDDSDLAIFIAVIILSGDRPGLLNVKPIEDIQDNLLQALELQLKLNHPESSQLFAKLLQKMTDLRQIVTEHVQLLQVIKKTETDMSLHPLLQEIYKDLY
Description: as §1, §2, §3, §4, §5, §6, §7, §8, §9, §10

[4] = target: T3, PPARδ (Homo sapiens, UniProt Q03181); assay: PPARd CALUX; format: cell-based; conditions: 24 h exposure, lowest effect level PC10, means from 3 assay runs
T3 construct: host or cells: U-2 OS
T3 sequence (Q03181 1-441): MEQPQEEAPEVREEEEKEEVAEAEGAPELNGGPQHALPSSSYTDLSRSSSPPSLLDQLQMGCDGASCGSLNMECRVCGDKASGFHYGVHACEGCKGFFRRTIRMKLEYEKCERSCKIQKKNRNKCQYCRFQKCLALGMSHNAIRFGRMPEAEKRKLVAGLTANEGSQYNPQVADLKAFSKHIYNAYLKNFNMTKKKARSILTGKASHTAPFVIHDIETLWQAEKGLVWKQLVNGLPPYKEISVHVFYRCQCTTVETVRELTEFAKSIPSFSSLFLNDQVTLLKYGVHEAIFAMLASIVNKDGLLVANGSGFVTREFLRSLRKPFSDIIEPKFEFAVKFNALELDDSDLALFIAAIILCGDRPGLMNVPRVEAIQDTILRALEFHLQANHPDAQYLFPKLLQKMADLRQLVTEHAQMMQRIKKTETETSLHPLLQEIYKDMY

[5] = test system: p53-dependent pathway activation / genotoxicity; format: cell-based, human; conditions: 24 h exposure, lowest effect level FI=1.5, means from 3 assay runs
Description: as §1, §3, §4, §5, §6, §7, §8, §9, §10

[6] = test system: Endoplasmic reticulum stress; assay: ESRE CALUX; format: cell-based, human; conditions: 24 h exposure, lowest effect level PC10, means from 3 assay runs
Description: as §1, §3, §4, §5, §6, §7, §8, §9, §10

[7] = target: T4, Progesterone receptor (Homo sapiens, UniProt P06401); assay: PR-anti CALUX; format: cell-based; conditions: 24 h exposure, lowest effect level PC20, reference agonist at EC50, means from 3 assay runs
T4 construct: host or cells: U-2 OS
T4 sequence (P06401 1-933): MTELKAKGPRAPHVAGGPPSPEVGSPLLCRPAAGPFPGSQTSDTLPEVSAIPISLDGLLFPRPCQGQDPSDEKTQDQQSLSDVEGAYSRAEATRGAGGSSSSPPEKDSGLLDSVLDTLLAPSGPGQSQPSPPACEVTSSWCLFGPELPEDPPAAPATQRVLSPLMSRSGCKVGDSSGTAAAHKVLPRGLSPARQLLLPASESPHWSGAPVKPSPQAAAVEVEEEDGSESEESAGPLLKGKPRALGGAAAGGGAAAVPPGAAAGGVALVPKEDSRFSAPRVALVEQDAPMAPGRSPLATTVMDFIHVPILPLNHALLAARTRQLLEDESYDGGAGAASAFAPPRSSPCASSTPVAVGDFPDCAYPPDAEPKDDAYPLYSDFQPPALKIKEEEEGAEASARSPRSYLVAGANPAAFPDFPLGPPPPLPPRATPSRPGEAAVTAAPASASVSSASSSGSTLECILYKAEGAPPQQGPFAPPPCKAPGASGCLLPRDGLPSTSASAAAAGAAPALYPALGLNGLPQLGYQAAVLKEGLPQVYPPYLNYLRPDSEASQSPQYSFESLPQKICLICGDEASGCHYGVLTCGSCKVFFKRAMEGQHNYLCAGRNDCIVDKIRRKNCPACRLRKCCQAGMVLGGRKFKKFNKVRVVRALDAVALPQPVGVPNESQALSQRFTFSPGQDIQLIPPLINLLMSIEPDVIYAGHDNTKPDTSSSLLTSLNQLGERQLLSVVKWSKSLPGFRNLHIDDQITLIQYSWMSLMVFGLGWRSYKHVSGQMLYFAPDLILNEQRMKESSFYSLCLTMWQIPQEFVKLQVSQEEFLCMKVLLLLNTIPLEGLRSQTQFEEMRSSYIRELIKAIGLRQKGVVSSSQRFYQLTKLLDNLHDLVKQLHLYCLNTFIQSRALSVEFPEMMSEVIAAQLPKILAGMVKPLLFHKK
Description: as §1, §3, §4, §5, §6, §7, §8, §9, §10

[8] = target: T5, Pregnane X receptor (Homo sapiens, UniProt O75469); assay: PXR CALUX; format: cell-based; conditions: 24 h exposure, lowest effect level PC10, means from 3 assay runs
T5 construct: host or cells: U-2 OS
T5 sequence (O75469 1-434): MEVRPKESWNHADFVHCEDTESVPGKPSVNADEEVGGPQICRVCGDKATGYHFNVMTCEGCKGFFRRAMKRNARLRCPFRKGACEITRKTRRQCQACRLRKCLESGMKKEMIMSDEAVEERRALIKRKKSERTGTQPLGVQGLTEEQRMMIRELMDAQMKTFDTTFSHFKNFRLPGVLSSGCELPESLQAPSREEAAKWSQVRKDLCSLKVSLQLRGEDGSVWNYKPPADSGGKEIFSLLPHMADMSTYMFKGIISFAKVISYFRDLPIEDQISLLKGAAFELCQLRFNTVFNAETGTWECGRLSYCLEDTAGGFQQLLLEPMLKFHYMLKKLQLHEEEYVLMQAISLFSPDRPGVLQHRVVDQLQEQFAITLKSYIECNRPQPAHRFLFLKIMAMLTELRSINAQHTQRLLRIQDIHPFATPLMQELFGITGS
Description: as §1, §3, §4, §5, §6, §7, §8, §9, §10

[9] = test system: Transcription of p21 inhibitor of cell cycle progression; assay: p21 CALUX; format: cell-based, human; conditions: 24 h exposure, lowest effect level PC10, means from 3 assay runs
Description: as §1, §3, §4, §5, §6, §7, §8, §9, §10

[10] = test system: wnt/TCF pathway activation; assay: TCF CALUX; format: cell-based, human; conditions: 24 h exposure, lowest effect level FI=1.5, means from 3 assay runs

What does the source list for `CC(C)Cc1ccc(C(C)C(=O)O)cc1` (centres unmarked) [Ibuprofen]?
response profile over the CALUX battery (in words) [1]: activated all three isoforms of the peroxisome proliferator activated receptor; PoD PPARα - ago [2]: 4.3 -log(M); PoD PPARγ - ago [3]: 4.0 -log(M); PoD PPARδ - ago [4]: 4.0 -log(M); PoD p53 [5]: 3.0 -log(M)

For `CCCC(CCC)C(=O)O` [Valproic acid], which “PoD PPARα - ago” value [2] is on record?
The value was 4.0 -log(M).

And the “PoD ESRE” value [6]?
Its value is 4.0 -log(M).

What about the “PoD PR - anta” value [7] of the same molecule?
Its value is 3.1 -log(M).

What about the “PoD PXR - ago” value [8] of the same molecule?
The value was 4.0 -log(M).

And the “PoD p21” value [9]?
Its value is 3.2 -log(M).

And the “PoD TCF” value [10]?
Its value is 4.0 -log(M).
